Measured values from paper PMC8879200, “Design, Synthesis, and Biological Evaluation of 4,4’-Difluorobenzhydrol Carbamates as Selective M1 Antagonists” (Pharmaceuticals, 2022).
Where “and” joins values, the source holds several entries; their conditions need not be identical. Identical values can stand only once. Like-named read-outs stand apart in the source and are kept apart here.

Legend:
[1] = target: T1, hM1 (Homo sapiens, UniProt P11229); assay: Competitive [3H]NMS radioligand binding, CHO-hM1 cell membranes; details: for Displacement ± SD of [3H]NMS binding, hM1: single ligand concentration corresponding to a Ki of 1 µM (Cheng-Prusoff)
T1 construct: host or cells: CHO-K1, stably transfected
T1 sequence (P11229 1-460): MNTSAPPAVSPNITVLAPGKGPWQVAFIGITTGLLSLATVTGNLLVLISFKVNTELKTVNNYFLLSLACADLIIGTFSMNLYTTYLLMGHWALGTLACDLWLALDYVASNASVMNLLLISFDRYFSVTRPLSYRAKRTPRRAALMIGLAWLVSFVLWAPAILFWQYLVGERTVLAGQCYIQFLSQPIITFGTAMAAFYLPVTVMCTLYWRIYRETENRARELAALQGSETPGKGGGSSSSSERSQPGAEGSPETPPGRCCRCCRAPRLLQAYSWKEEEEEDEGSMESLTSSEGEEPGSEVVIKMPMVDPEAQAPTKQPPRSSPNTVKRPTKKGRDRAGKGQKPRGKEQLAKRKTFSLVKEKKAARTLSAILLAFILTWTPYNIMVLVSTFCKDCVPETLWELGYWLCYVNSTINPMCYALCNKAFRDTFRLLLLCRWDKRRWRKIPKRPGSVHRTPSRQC
Description: (§1) We first assessed the carbamates’ affinities for human muscarinic acetylcholine receptors subtypes hM1–5 by means of a competitive radioligand binding assay displacing [N-methyl-^3H]scopolamine methyl chloride ([^3H]NMS) in cell membranes expressing the individual receptors.
(§2) Cell membranes bearing hM1-hM5 receptors were prepared as described previously. Briefly, stably transfected CHO-K1 cells were grown to at least 80% confluency in T175 flasks, washed with ice-cold DPBS, and scraped into a mixture of ice-cold of 2 mL 10 mM Tris-HCl, 1 mM EDTA-buffer, pH 7.4 and 200 µL protease inhibitor. A cell homogenate was prepared by passing the cell suspension through a G29 needle. The cell homogenates corresponding to two T175 flasks were combined and subsequently centrifuged (10 min, 1000 × g, 4 °C). Ultracentrifugation of the supernatant (1 h, 100,000 × g, 4 °C) yielded a membrane pellet, which was suspended in 250 µL 50 mM Tris-HCl buffer, pH 7.4 and stored at −80 °C.
(§3) Maximum binding was measured by using 5 µL DMSO, and nonspecific binding was measured by using 5 µL of 1 µM scopolamine in DMSO. […] The membrane-bound radioactivity was recovered by filtration through Whatman™ GF/B glass fibre filters pre-soaked in aqueous 0.1% PEI using an M-36 tygon tubed cell harvester (Brandel®, Gaithersburg, MD, USA). Membranes were washed 3 times with ice-cold washing buffer (50 mM Tris, pH 7.4) before being dried, transferred to 2 mL scintillation cocktail (UltimaGold™, high flashpoint LSC cocktail, PerkinElmer, Waltham, MA, USA) and counted in a β -counter (Hidex TDCR Liquid Scintillation Counter in CPM mode). IC50 values were calculated by a variable slope logistic regression using at least five distinct concentrations of test compounds, pipetted in triplicates.

[2] = target: T2, hM2 (Homo sapiens, UniProt P08172); assay: Competitive [3H]NMS radioligand binding, CHO-hM2 cell membranes; details: for Ki: read-out: Affinity: Ki ± SD, hM2; for x-Fold selectivity for hM1 vs. hM2: ratio of Ki values hM2/hM1; for Displacement ± SD of [3H]NMS binding, hM2: single ligand concentration corresponding to a Ki of 1 µM (Cheng-Prusoff)
T2 construct: host or cells: CHO-K1, stably transfected
T2 sequence (P08172 1-466): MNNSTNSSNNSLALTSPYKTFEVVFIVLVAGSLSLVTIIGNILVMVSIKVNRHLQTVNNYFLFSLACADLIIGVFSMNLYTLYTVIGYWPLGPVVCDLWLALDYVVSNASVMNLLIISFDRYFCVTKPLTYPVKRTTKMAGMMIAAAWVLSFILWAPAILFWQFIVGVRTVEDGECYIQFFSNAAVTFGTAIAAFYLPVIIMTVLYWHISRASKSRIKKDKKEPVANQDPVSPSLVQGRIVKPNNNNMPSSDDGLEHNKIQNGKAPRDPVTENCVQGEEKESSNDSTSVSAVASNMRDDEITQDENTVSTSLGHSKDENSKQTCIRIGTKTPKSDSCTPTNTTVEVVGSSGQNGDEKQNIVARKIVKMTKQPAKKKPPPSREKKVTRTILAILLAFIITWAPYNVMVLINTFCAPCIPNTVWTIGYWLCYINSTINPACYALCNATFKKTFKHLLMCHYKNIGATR
Description: as §1, §2, §3

[3] = target: T3, hM3 (Homo sapiens, UniProt P20309); assay: Competitive [3H]NMS radioligand binding, CHO-hM3 cell membranes; details: for Ki: read-out: Affinity: Ki ± SD, hM3; for x-Fold selectivity for hM1 vs. hM3: ratio of Ki values hM3/hM1; for Displacement ± SD of [3H]NMS binding, hM3: single ligand concentration corresponding to a Ki of 1 µM (Cheng-Prusoff)
T3 construct: host or cells: CHO-K1, stably transfected
Description: as §1, §2, §3

[4] = target: T4, hM4 (Homo sapiens, UniProt P08173); assay: Competitive [3H]NMS radioligand binding, CHO-hM4 cell membranes; details: for x-Fold selectivity for hM1 vs. hM4: ratio of Ki values hM4/hM1; for Displacement ± SD of [3H]NMS binding, hM4: single ligand concentration corresponding to a Ki of 1 µM (Cheng-Prusoff)
T4 construct: host or cells: CHO-K1, stably transfected
T4 sequence (P08173 1-479): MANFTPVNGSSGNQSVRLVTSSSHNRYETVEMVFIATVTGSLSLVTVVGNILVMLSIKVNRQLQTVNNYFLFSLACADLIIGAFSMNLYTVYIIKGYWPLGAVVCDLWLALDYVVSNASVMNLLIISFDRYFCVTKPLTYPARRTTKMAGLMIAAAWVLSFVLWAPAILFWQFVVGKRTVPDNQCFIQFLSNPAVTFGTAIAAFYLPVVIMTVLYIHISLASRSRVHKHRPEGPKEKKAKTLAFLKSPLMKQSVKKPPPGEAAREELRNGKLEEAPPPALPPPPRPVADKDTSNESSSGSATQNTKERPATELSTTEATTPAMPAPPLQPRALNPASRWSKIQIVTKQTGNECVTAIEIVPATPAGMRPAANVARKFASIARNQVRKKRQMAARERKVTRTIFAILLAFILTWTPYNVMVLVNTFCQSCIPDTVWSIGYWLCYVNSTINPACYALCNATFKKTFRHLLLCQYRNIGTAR
Description: as §1, §2, §3

[5] = target: T5, hM5 (Homo sapiens, UniProt P08912); assay: Competitive [3H]NMS radioligand binding, CHO-hM5 cell membranes; details: for x-Fold selectivity for hM1 vs. hM5: ratio of Ki values hM5/hM1; for Displacement ± SD of [3H]NMS binding, hM5: single ligand concentration corresponding to a Ki of 1 µM (Cheng-Prusoff)
T5 construct: host or cells: CHO-K1, stably transfected
T5 sequence (P08912 1-532): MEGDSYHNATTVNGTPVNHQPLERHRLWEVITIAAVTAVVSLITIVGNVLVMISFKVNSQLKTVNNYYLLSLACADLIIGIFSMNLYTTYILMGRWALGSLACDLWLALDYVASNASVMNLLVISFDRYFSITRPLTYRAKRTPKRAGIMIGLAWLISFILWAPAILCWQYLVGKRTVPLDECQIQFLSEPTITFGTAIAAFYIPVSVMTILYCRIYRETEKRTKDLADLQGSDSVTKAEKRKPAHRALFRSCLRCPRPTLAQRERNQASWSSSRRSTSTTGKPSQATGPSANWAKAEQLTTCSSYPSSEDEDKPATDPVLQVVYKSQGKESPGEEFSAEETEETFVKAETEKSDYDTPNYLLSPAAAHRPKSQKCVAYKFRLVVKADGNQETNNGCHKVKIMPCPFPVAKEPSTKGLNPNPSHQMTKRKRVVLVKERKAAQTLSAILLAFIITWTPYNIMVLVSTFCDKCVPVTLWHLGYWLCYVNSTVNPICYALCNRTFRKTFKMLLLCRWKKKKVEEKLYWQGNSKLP
Description: as §1, §2, §3

[6] = High throughput HPLC-logD (lipophilicity); details: pH 7.4
Description: Briefly, a mixture of toluene (≥98%, Sigma-Aldrich, St. Louis, MO, USA) and triphenylene (≥99.9%, Carl Roth, Karlsruhe, Germany) was used as internal standard. Each sample was dissolved in the internal standard mixture. Using gradient elution, the injection volume was set to 7 µL, the flow rate was 1.5 mL/min, and the mobile phase consisted of a mixture of methanol and 0.01 M sodium phosphate buffer pH 7.4. The HPLC-logD values were derived from the measured retention times following the previously published equation [27, 30].

[7] = Stability in fully supplemented RPMI1640 cell culture medium; format: in vitro ADME; details: fully supplemented RPMI1640, ambient temperature, after 24 h
Description: Since the decomposition in cell culture medium of compounds designated for biological testing could impair potential assay readouts, the stabilities of one tertiary carbamate (3) and one secondary carbamate (7) were investigated as representatives for the compound set 1–12. Gratifyingly, the rate of decomposition in fully supplemented RPMI1640 cell culture medium at ambient temperature has been fairly slow, with > 95% of both compounds remaining intact after 24 h (Supplementary Materials, Figure S3). Such stability is adequate with the requirements for carbon-11 labelled PET tracers of around 2–3 half-lives.
The stabilities of 3 and 7 were measured using the HPLC gradient method as described for the purity determination. 4 µL of a test compound’s stock solution in DMSO was diluted with fully supplemented RPMI1640 cell culture medium (10% FBS, 1% L-glutamine, without antibiotics). The stability was measured at ambient temperature and the column oven was set to 20 °C. The samples were measured at 0, 30, 60, 120 min and 24 h.

[8] = inhibition of [3H]NMS binding, CHO-hM1 membranes, read-out: Affinity: Ki ± SD, hM1
[9] = inhibition of [3H]NMS binding, CHO-hM4 membranes, read-out: Affinity: Ki ± SD, hM4
[10] = inhibition of [3H]NMS binding, CHO-hM5 membranes, read-out: Affinity: Ki ± SD, hM5

T3 sequence (P20309 whole entry): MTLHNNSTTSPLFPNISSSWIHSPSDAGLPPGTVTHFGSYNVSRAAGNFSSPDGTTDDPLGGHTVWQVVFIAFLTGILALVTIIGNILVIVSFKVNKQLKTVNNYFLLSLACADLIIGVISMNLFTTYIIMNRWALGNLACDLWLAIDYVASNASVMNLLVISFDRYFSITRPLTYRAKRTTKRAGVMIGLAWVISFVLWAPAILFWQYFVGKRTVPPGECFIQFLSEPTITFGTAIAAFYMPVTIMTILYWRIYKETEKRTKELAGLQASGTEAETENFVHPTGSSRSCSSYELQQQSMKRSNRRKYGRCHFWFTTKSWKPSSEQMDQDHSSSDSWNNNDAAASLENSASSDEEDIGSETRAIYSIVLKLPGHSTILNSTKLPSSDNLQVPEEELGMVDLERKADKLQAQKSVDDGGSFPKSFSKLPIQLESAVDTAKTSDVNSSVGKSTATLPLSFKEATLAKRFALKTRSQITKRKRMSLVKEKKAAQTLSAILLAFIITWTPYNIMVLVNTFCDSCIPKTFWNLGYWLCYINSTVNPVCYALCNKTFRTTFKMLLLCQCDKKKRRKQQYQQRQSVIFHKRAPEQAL

SMILES | Ki [1, 8] [nM] | Ki [2] [nM] | Ki [3] [nM] | Ki [4, 9] [nM] | Ki [5, 10] [nM] | chromatographic logD [6] | Compound remaining intact in cell culture medium [7] [%] | Ki [1] [nM] | Ki [4] [nM] | Ki [5] [nM] | x-Fold selectivity for hM1 vs. hM2 [2] [fold] | x-Fold selectivity for hM1 vs. hM3 [3] [fold] | x-Fold selectivity for hM1 vs. hM4 [4] [fold] | x-Fold selectivity for hM1 vs. hM5 [5] | Displacement ± SD of [3H]NMS binding, hM1 [1] [%] | Displacement ± SD of [3H]NMS binding, hM2 [2] [%] | Displacement ± SD of [3H]NMS binding, hM3 [3] [%] | Displacement ± SD of [3H]NMS binding, hM4 [4] [%] | Displacement ± SD of [3H]NMS binding, hM5 [5] [%]
CN1CCN(C(=O)OC(c2ccc(F)cc2)c2ccc(F)cc2)CC1 [Compound 1, Bis(4-fluorophenyl)methyl 4-methylpiperazine-1-carboxylate] | 15.2 ± 3.6 | > 1000 | 226 ± 85.2 | 54.8 ± 20.5 | 50.6 ± 3.9 | 3.16 ± 0.01 | – | – | – | – | – | – | – | – | – | – | – | – | –
CN1CCCN(C(=O)OC(c2ccc(F)cc2)c2ccc(F)cc2)CC1 [Compound 2, Bis(4-fluorophenyl)methyl 4-methyl-1,4-diazepane-1-carboxylate] | 1.2 ± 0.4 | 227 ± 85.9 | 28.4 ± 10.7 | 14.4 ± 5.5 | 4.8 ± 1.6 | 3.2 ± 0.02 | – | – | – | – | – | – | – | – | – | – | – | – | –
CN1CC2CC1CN2C(=O)OC(c1ccc(F)cc1)c1ccc(F)cc1 (stereo not shown) [Compound 3, Bis(4-fluorophenyl)methyl5-methyl-2,5-diazabicyclo[2.2.1]heptane-2-carboxylate] | 33.1 ± 8.1 | > 1000 | 358 ± 83 | 115 ± 51 | 68 ± 22.1 | 2.69 ± 0.01 | > 95 | – | – | – | – | – | – | – | – | – | – | – | –
CN1[C@@H]2CC[C@H]1CN(C(=O)OC(c1ccc(F)cc1)c1ccc(F)cc1)C2 [Compound 4, Bis(4-fluorophenyl)methyl (1R,5S)-8-methyl-3,8-diazabicyclo[3.2.1]octane-3 carboxylate] | – | 850 ± 39.8 | 142 ± 24.2 | – | – | 3.28 ± 0.03 | – | 16.5 ± 2.8 | 19.6 ± 5.5 | 41.8 ± 14.8 | – | – | – | – | – | – | – | – | –
CN1CC2(CCN(C(=O)OC(c3ccc(F)cc3)c3ccc(F)cc3)C2)C1 [Compound 5, Bis(4-fluorophenyl)methyl 2-methyl-2,6-diazaspiro[3.4]octane-6-carboxylate] | 24.9 ± 6.2 | > 1000 | 165 ± 37.5 | 150 ± 52.9 | 231 ± 25.7 | 2.69 ± 0.01 | – | – | – | – | >40 | 6.6 | 6.0 | 9 fold and 9.3 fold | – | – | – | – | –
CN1CCC(NC(=O)OC(c2ccc(F)cc2)c2ccc(F)cc2)CC1 [Compound 6, Bis(4-fluorophenyl)methyl (1-methylpiperidin-4-yl)carbamate] | – | – | – | – | – | 3.25 ± 0.04 | – | – | – | – | – | – | – | – | 52 ± 8 | 10 ± 7 | 29 ± 5 | 48 ± 9 | 54 ± 8
CN1CCCC(NC(=O)OC(c2ccc(F)cc2)c2ccc(F)cc2)C1 (stereo not shown) [Compound 7, Bis(4-fluorophenyl)methyl (1-methylpiperidin-3-yl)carbamate] | 1.22 ± 0.06 | 32.8 ± 11.4 | 16.1 ± 4.5 | 6.2 ± 2.1 | 3.7 ± 1.3 | 2.2 ± 0.2 | > 95 | – | – | – | – | – | – | – | – | – | – | – | –
CN1CCC(CNC(=O)OC(c2ccc(F)cc2)c2ccc(F)cc2)C1 (stereo not shown) [Compound 10, Bis(4-fluorophenyl)methyl ((1-methylpyrrolidin-3-yl)methyl)carbamate] | 239 ± 67.9 | > 1000 | 277 ± 45.4 | 238 ± 104 | 295 ± 32.8 | 2.69 ± 0.01 | – | – | – | – | >4 | 1.2 | 1.0 | 1.2 fold | – | – | – | – | –
CN1CCCC1CCNC(=O)OC(c1ccc(F)cc1)c1ccc(F)cc1 (stereo not shown) [Compound 11, Bis(4-fluorophenyl)methyl (2-(1-methylpyrrolidin-2-yl)ethyl)carbamate] | – | – | – | – | – | 2.5 ± 0.3 | – | – | – | – | – | – | – | – | 53 ± 8 | 37 ± 15 | 62 ± 3 | 54 ± 13 | 59 ± 17
CN1CCOCC1CNC(=O)OC(c1ccc(F)cc1)c1ccc(F)cc1 (stereo not shown) [Compound 12, Bis(4-fluorophenyl)methyl ((4-methylmorpholin-3-yl)methyl)carbamate] | – | – | – | – | – | 2.82 ± 0.04 | – | – | – | – | – | – | – | – | 39 ± 5 | 8 ± 5 | 25 ± 9 | 20 ± 8 | 43 ± 11
